According to patent US8324238B2:
Where two headings read alike, the source gives them in different places. One block for each compound: values may come before it.

Experiments:
[1] = tested on: gram positive bacteria, gram negative bacteria, methicillin resistant bacteria, penicillin resistant bacteria, and the known quinolone resistant strains; details: cited from earlier work
[2] = Solubility of various salt forms in various solvents at room temperature (Example 4A); format: physicochemical; details: read-out: Salt Form Solubility
[3] = See Korean Patent No. 10-566346; cited from earlier work
[4] = tested on: male ICR mice; assay: Mouse toxicity test, intraperitoneal (Example 6)
Procedure: Male ICR mice are divided into six dose groups (five mice per group), and then fasted (no food is given except water) for 24 hours. […] A median lethal dose (LD50), an approximate lethal dose, and a maximum tolerate dose are determined after observation for 14 days.
Necropsy and histopathology findings are also performed.

[5] = Solubility of various salts in distilled water, converted into free base (Example 4B); details: room temperature, converted into the corresponding solubilities of free base
[6] = tested on: Bone Marrow Cells of Male Mice; assay: Micronucleus test in bone marrow cells of male mice (Example 14); details: 70 mg/kg intraperitoneally
Procedure: 70 mg/kg intraperitoneally administration of CPA is used as a positive control dosage (seven male ICR mice are used in each group). Twenty-four hours after single injection administration, all animals are sacrificed and the changes on the number of polychromatic erythrocyte with one or more nuclei (MNPCE) are evaluated with the changes on the total white blood cells and difference counts on the neutrophils and lymphocytes on the prepared blood. In addition, PCE/(PCE+normochromatic erythrocytes (NCE)) ratio are calculated by counting 500 erythrocytes for detecting possibility of cytotoxicity.

[7] = mouse, in vivo
Procedure: Seven week old male mice (ICR CD-1), 28-31 g of body weight upon receipt, are used.
Blood is sampled at 0.25, 0.5, 1, 1.5, 2, 3, 4, and 5 hours after dosing by orbital puncture.

[8] = Pharmacokinetic study after intravenous administration in rats (Example 10); details: 10 mg/kg i.v. in male SD rats
[9] = in vivo
[10] = male ICR mice, intraperitoneal, 14 days observation
[11] = male, ICR, mouse, in vivo, ip, 14 days
[12] = 24 hours after single injection

Compound: CON=C1CN(c2nc3c(cc2F)c(=O)c(C(=O)O)cn3C2CC2)CC12CNC2 [Parent Compound]
Antimicrobial activity [1]: excellent antimicrobial activity | Solubility ([2]; aqueous solution with a pH of 1.2, simulated gastric fluid, pH 1.2, room temperature): 7700 µg/mL | Solubility ([2]; aqueous solution with a pH of 6.8, aqueous buffer, pH 6.8, room temperature): 38 µg/mL | Solubility ([2]; solvent of pH 4.0, aqueous buffer, pH 4.0, room temperature): 6490 µg/mL | Aqueous solubility [3]: low

Compound: CON=C1CN(c2nc3c(cc2F)c(=O)c(C(=O)O)cn3C2CC2)CC12CNC2 [Formate]
Approximate lethal dose [4, 10]: 500 to 1000 mg/kg | Median lethal dose [4, 10]: 716.24 mg/kg | Maximum tolerate dose [4, 11]: 500 mg/kg

Solubility [5]: 0.18 mg/mL
Compound: Maleate

Compound: CON=C1CN(c2nc3c(cc2F)c(=O)c(C(=O)O)cn3C2CC2)CC12CNC2 [Methanesulfonate]
Approximate lethal dose [4, 10]: 500 to 1000 mg/kg | Median lethal dose [4, 10]: 716.24 mg/kg | Maximum tolerate dose [4, 11]: 500 mg/kg

Compound: O=P1(N(CCCl)CCCl)NCCCO1 (stereo not shown) [CPA, cyclophosphamide]
MNPCEs 2000 PCEs [6, 12]: 71.86 ± 10.43 | PCE(PCE + NCE) ratio [6, 12]: 0.36 ± 0.07 | Proportions among 100 leukocytes (%) Lymphocytes [6, 12]: 75.71 ± 9.20% | Proportions among 100 leukocytes (%) Neutrophils [6, 12]: 21.71 ± 9.45% | Total leukocyte numbers [6, 12]: 2.36 ± 0.55 ×10^3 cells mm^3 | Change of MNPCE ([6]; CPA treated group): significant increase of MNPCE | Loss of Locomotion ([6]; male ICR mice, single): 0/7 | Mortality ([6]; male ICR mice, single): 0/7

Compound: CON=C1CN(c2nc3c(cc2F)c(=O)c(C(=O)O)cn3C2CC2)CC12CNC2 [Phosphate]
Approximate lethal dose [4, 10]: 250 to 500 mg/kg | Median lethal dose [4, 10]: 356.91 mg/kg | Maximum tolerate dose [4, 11]: 250 mg/kg

Solubility [5]: 0.02 mg/mL
Compound: [Mg] [Magnesium]

Compound: Mandelate
Solubility [5]: 1.01 mg/mL

Solubility [5]: 0.63 mg/mL
Compound: Fumarate

Compound: CON=C1CN(c2nc3c(cc2F)c(=O)c(C(=O)O)cn3C2CC2)CC12CNC2.Cl [Hydrochloride]
C last ([7]; iv, 10 mg/kg): 0.067 µg/mL | Half-life ([7]; iv, 10 mg/kg): 1.259 h | T last ([7]; iv, 10 mg/kg): 4.0 h | Half-life ([7]; po, 100 mg/kg): 2.205 h | Approximate lethal dose [4, 10]: 250 to 500 mg/kg | Maximum tolerate dose [4, 10]: 250 mg/kg | Median lethal dose [4, 10]: 481.93 mg/kg | AUC 0-5 hr [8]: 6.070 ± 0.731 | AUC inf [8]: 6.283 ± 0.804 µg·h/mL | C last [8]: 0.137 ± 0.042 µg/mL | Half-life [8]: 1.061 ± 0.093 h | T last [8]: 5.0 ± 0.0 h | Fibrous peritonitis [9]: severe fibrous peritonitis

Compound: O=C(O)c1ccccc1O [Salicylate]
Solubility [5]: 0.11 mg/mL
